Measurements as given in patent US9572788B2, “Cell permeable inhibitors of anaphase promoting complex” (President and Fellows of Harvard College, priority 2014, dated 2017).
Peptide text beside a SMILES is read from it. * marks the point of attachment. Cbz = O=C(OCc1ccccc1)*

Tests used:
Type in all cases: cell-based, human
HeLa H2B-GFP cells [1] = test: Live cell imaging of mitotic duration and cell fate
Experimental: Detailed siRNA transfection and drug treatment schemes are described in supplemental experimental procedures. HeLa H2B-GFP cells were plated in DMEM with 10% FBS at 20% confluence. […] Live cell imaging was performed at 12 minute intervals on a Nikon TE2000E PFS inverted microscope fitted with an incubation chamber maintained at 37° C. and supplied with 5% CO2. Cell division was tracked by manual inspection of movies, and mitotic duration was measured as the time between the first frame of chromosome condensation and the frame of chromosome segregation (anaphase), decondensation (mitotic exit without anaphase) or cell death (chromosomes shrinking to a small bright dot).
The imaging plate was mounted onto a motorized stage (Prior ProScan II) on a Nikon TE2000E PFS inverted microscope fitted with an incubation chamber maintained at 37° C. and supplied with 5% CO2. A 20× Plan Apo 0.75 NA or 40× Plan Fluor 0.75 NA objective lens was used as indicated and images were collected with 2×2 binning. […] TIFF files of each image were exported from Elements and used to build stacks and Quicktime movies with Metamorph imaging software (Molecular Devices). For manual analysis, mitotic duration is counted as the time between the first frame of chromosome condensation and the frame of chromosome segregation (anaphase) or decondensation (mitotic exit in the presence of nocodazole) or cell death (chromosomes shrinking to a small bright dot).
HeLa H2B-GFP cells were plated in a 24-well plate in DMEM 10% FBS at 20% confluence one day prior to experiment and synchronized by double thymidine block as described above. […] Live cell imaging was set up as described above.
HeLa H2B-GFP cells were plated in a 24-well plate in DMEM+10% FBS at 20% confluence one day prior to the experiment and synchronized by double thymidine block as described above. The cells were released from the first thymidine block into 200 μl OptiMem without FBS. Transfection was performed immediately after the first thymidine release. […] The two mixtures were left at room temperature for 5 min before being mixed together and incubated for additional 20 min and then added to the cells to a final volume of 250 μl. 4 h after transfection, 250 μl of DMEM+20% FBS were added to cells.
HeLa H2B-GFP cells were plated in glass-bottom 24-well plates at 20% confluence one day prior to the experiment and synchronized by double thymidine block as described above. […] Cells were treated with 100 nM Hesperadin or DMSO 8 h after release from the second thymidine block and live cell imaging was set up as described above.
HeLa H2B-GFP cells were plated in a 24-well plate in DMEM+10% FBS at 20% confluence one day prior to experiment and synchronized by double thymidine block as synchronized above. […] Live cell imaging was set up as described above.
HeLa H2B-GFP cells were plated in a 24-well plate in DMEM+10% FBS at 20% confluence one day prior to experiment and synchronized by double thymidine block as described above. […] Untreated cells were used as the control. Live cell imaging was set up as described above. […] Alternatively, at 10 h after release from the second block, 10 μM MG132 with or without 25 μg/ml cycloheximide was added to the cells. […] Live cell imaging was set up as described above.
HeLa H2B-GFP cells were plated in a 24-well plate in DMEM+10% FBS at 20% confluence one day prior to experiment and synchronized by double thymidine block as described above. Mad2 siRNA transfection was performed as described above. At 10 h after release from the second block, 10 μM MG132 with or without 25 μg/ml cycloheximide was added to the cells. Live cell imaging was set up as described above. Manual analysis was focused only on cells that entered mitosis after MG132 addition.
Live cell imaging experiments. […] Nocodazole, taxol, proTAME, cyclinal and hesperadin were added to cells at 8 h after release. MG132 was added to cells at 10 h after release to allow mitotic entry.

HeLa H2B-GFP cells [2] = test: Chromosome congression analysis
Experimental: HeLa H2B-GFP cells were plated in 35 mm glass-bottom dishes (MatTek) in DMEM+10% FBS at 20% confluence one day prior to the experiment and synchronized by double thymidine block as described above. Drugs were added as follows to a final volume of 3 ml from 2× concentrated preparation in culture medium. DMSO (0.06%), proTAME (3 and 12 μM) or 10 nM Nocodazole were added 8 h after release from the second block, while MG132 (10 μM) was added at 10 h. H2B-GFP was imaged for 4 hrs every 3 min at 40× magnification as described above.

HeLa cells = test: Immunofluorescence of mitotic spindle and interkinetochore distance; details: asynchronous HeLa, 2 h; 12 μM proTAME; nocodazole or taxol
Experimental: HeLa cells grown in DMEM+10% FBS were plated on 25 mm glass coverslips in a E-well dish at a density of 130,000/ml×3 ml 48 h prior to treatment. They were then treated with 0.06% DMSO, 12 μM proTAME, 300 nM nocodazole or 300 nM taxol for 2 h. The cells were washed twice with PBS and fixed with 3% paraformaldehyde for 15 min. The cells were then washed with PBS and permeabilized with PBS plus 0.5% Triton X-100 for 2 min. The cells were then washed with PBS and blocked with PBS plus 5% FBS for 1 h. CREST antisera diluted 1:50 into PBS was added to the cells and incubated at room temperature for 1 h. The cells were washed with PBS and incubated with 1:1000 anti-human-Alexa 568 (Invitrogen, A21090) and 1:100 anti-α-tubulin-FITC for 1 h. The cells were then washed with PBS and the nuclei were stained with 1 μg/ml Hoechst 33342. The cover slips were mounted in 0.1M N-propylgallate in 9:1 glycerol:PBS. Z-series images were taken on a Nikon TE2000 microscope with PerkinElmer spinning disk confocal device. Maximal Z-projection images of individual cells were made by Image J. To measure interkinetochore distances, a straight line was drawn across a kinetochore pair in the same confocal plane and pixel intensities along the line were plotted so that each kinetochore would be represented by a peak on the line. The interkinetochore distance was calculated as the distance between the peaks. Fifty-five kinetochore pairs from 5 cells treated with DMSO or proTAME were measured and the p-value was calculated with a paired student test.

[3] = Fig 6C, compounds 8 h after release, 12 μM proTAME, 300 nM nocodazole, 150 nM taxol, 100 nM hesperadin
[4] = Fig 6D, Cdc27 siRNA, 100 nM hesperadin
[5] = Fig 6D, UbcH10 siRNA, 100 nM hesperadin
[6] = Fig 6D, control siRNA, 100 nM hesperadin
[7] = Fig 7A, control siRNA, 3 μM MG132
[8] = Fig 7B, MG132 3 μM, 100 nM hesperadin, 12 μM proTAME
[9] = Fig 7D, MG132 10 μM, 100 nM hesperadin, 12 μM proTAME
[10] = Fig 8B, MAD2 siRNA, MG132 10 μM ± 25 μg/ml cycloheximide
[11] = Fig 8B, control siRNA, MG132 10 μM ± 25 μg/ml cycloheximide
[12] = Fig S4C, proTAME 12 μM, MG132 10 μM, nocodazole 10 nM
[13] = Fig 8A, 12 μM proTAME, 300 nM nocodazole or 150 nM taxol, ± 25 μg/ml cycloheximide 4 h later

## CCS(=O)(=O)Nc1ccc2c(c1)/C(=C(/Nc1ccc(CN3CCCCC3)cc1)c1ccccc1)C(=O)N2 [Hesperadin, reference compound]
HeLa H2B-GFP cells [1]; [3]
  Average mitotic duration: 98.7 min
  Median mitotic duration: 96 min
HeLa H2B-GFP cells [1]; [4]
  Average mitotic duration: 131.8 min
  Median mitotic duration: 132 min
HeLa H2B-GFP cells [1]; [5]
  Average mitotic duration: 115.8 min
  Median mitotic duration: 108 min
HeLa H2B-GFP cells [1]; [6]
  Average mitotic duration: 115.6 min
  Median mitotic duration: 120 min
HeLa H2B-GFP cells [1]; co-treated with taxol
  Mitotic duration in the presence of taxol: ~2 h

## CC(C)C[C@@H](C=O)NC(=O)[C@H](CC(C)C)NC(=O)[C@H](CC(C)C)NC(=O)OCc1ccccc1 [MG132, reference compound] (Cbz-Leu-Leu-Leu-aldehyde)
HeLa H2B-GFP cells [1]; 3 μM
  Median duration of mitotic arrest: 15 h
HeLa H2B-GFP cells [1]; 3 μM, 30 h experiment
  Cells that exited mitosis: 10%
HeLa H2B-GFP cells [1]; 3 μM, cells depleted of Mad2 by RNAi
  Cells that exited mitosis: 50%
HeLa H2B-GFP cells [1]; 100 μM roscovitine at 12 h after release
  Response of arrested cells to roscovitine: showed complete resistance to roscovitine
HeLa H2B-GFP cells [1]; Fig 7A, MAD2 siRNA, 3 μM MG132
  Average mitotic duration: 605.3 min
  Median mitotic duration: 667.5 min
HeLa H2B-GFP cells [1]; [7]
  Average mitotic duration: 830.1 min
  Median mitotic duration: 840 min
HeLa H2B-GFP cells [1]; [8]
  Average mitotic duration: 1549.9 min
  Median mitotic duration: 1440 min
HeLa H2B-GFP cells [1]; [9]
  Average mitotic duration: 2169.8 min
  Median mitotic duration: 2172 min
HeLa H2B-GFP cells [1]; [10]
  Average mitotic duration: 1755.2 min
  Median mitotic duration: 1716 min
HeLa H2B-GFP cells [1]; [11]
  Average mitotic duration: 1715.1 min
  Median mitotic duration: 1614 min
HeLa H2B-GFP cells [1]; MG132 alone
  Time normal-appearing metaphase plate maintained: over 5 h
HeLa H2B-GFP cells [1]; synchronized, drugs 10 hrs after release, proTAME 3 μM, low-dose MG132
  Median mitotic delay/arrest: 276 min
HeLa H2B-GFP cells [2]; 3 μM proTAME or 10 μM MG132
  Delay in chromosome congression: caused no delay in chromosome congression
HeLa H2B-GFP cells [2]; [12]
  Average chromosome congression time: 21.6 min
  Median chromosome congression time: 21 min

## CC(=O)O[C@H]1C(=O)[C@@]2(C)[C@H]([C@H](OC(=O)c3ccccc3)[C@]3(O)C[C@H](OC(=O)[C@H](O)[C@@H](NC(=O)c4ccccc4)c4ccccc4)C(C)=C1C3(C)C)[C@]1(OC(C)=O)CO[C@@H]1C[C@@H]2O [Taxol, reference compound]
HeLa H2B-GFP cells [1]; [3]
  Average mitotic duration: 1946.9 min
  Median mitotic duration: 2070 min
HeLa H2B-GFP cells [1]; [13]
  Average mitotic duration: 1557.6 min
  Median mitotic duration: 1602 min
HeLa H2B-GFP cells [1]; unsynchronized HeLa H2B-GFP, taxol 10 nM, proTAME 3 μM, control 60 min
  Median mitotic duration: 414 min
HeLa cells
  Effect on mitotic spindle: strongly perturbed spindle organization
